Assays:
Assay type in all cases: in vivo
birds-eye speedwell [1] = test: Test Example 4: weedkilling efficacy by foliar treatment; p: birds-eye speedwell; conditions: treatment dosage 315 g/ha
Description: (§1) Testing of Weedkilling Efficacy by Foliar Treatment
(§2) Sterilized diluvial soil was introduced into 21 cm long, 13 cm wide, 7 cm deep plastic boxes, and seeds of crabgrass, green foxtail, barnyard grass, wild oat, black-grass, Italian ryegrass, common wind-grass, Indian mallow, redroot pigweed, fig-leafed goosefoot, chickweed, catchweed, birds-eye speedwell, corn, soybean, rice, wheat, beet and rapeseed were each spot-sown, and covered with about 1.5 cm of soil, then the plants were grown in a greenhouse at 25 to 30° C.
(§3) After they had grown for 14 days, emulsions of compounds of the present invention prepared according to compounding example 2 were diluted with water to give the specified dosages, and applied uniformly onto the stem and leaf parts with a small sprayer. 3 weeks after the pesticide treatment the effect on each type of plant was investigated on the basis of the assessment criteria of test example 1.
(§4) A: barnyard grass, B: bulrush, C: oval-leafed pondweed, D: crabgrass, E: green foxtail, F: barnyard grass, G: wild oat, H: black-grass, I: Italian ryegrass, J: common wind-grass, K: Indian mallow, L: redroot pigweed, M: fig-leafed goosefoot, N: chickweed, O: catchweed, p: birds-eye speedwell, a: transplanted rice, b: directly sown rice, c: corn, d: soybean, e: wheat, f: beet, g: rapeseed
(§5) Further, pesticide dosage (g/ha) indicates the concentration regulated such that treatment was with only the stated number of grams (g), when calculated per hectare (ha).

soybean [2] = test: Test Example 3: soil treatment, effect on crop; d: soybean; conditions: treatment dosage 315 g/ha
Summary of the method: (§6)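 Crop and weed responses were judged three weeks after a uniform surface spray of the water-diluted emulsion at the given g/ha rate. Seeds sat beneath about 1.5 cm of sterilized diluvial soil, and boxes stood in a greenhouse at 25 to 30° C.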

oval-leafed pondweed [3] = test: Test Example 1: weedkilling efficacy, preemergent weed treatment in the submerged state; C: oval-leafed pondweed; conditions: treatment dosage 252 g/ha
Summary of the method: (§7)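 Pots of alluvial soil were flooded to a 4 cm depth. Mixed weed seeds were sown and 2.5 leaf-stage rice seedlings transplanted. On sowing day, water-diluted emulsion was applied to the water surface (dose in g/ha). After 3 weeks at 25–30 °C, effects were rated.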

bulrush [4] = test: Test Example 2: weedkilling efficacy, growth period weed treatment in the submerged state; B: bulrush; conditions: treatment dosage 252 g/ha
Summary of the method: (§8)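 Weeds treated at the 1-2 leaf stage by application of diluted emulsion onto floodwater (4 cm depth, alluvial soil) at specified g/ha. Grown in greenhouse at 25 to 30° C; herbicidal effect rated three weeks after treatment.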

green foxtail [5] = test: Test Example 4: weedkilling efficacy by foliar treatment; E: green foxtail; conditions: treatment dosage 315 g/ha
Description: as §1, §2, §3, §4, §5

barnyard grass [6] = test: Test Example 1: weedkilling efficacy, preemergent weed treatment in the submerged state; A: barnyard grass; conditions: treatment dosage 252 g/ha
Summary of the method: as §7

barnyard grass [7] = test: Test Example 2: weedkilling efficacy, growth period weed treatment in the submerged state; A: barnyard grass; conditions: treatment dosage 252 g/ha
Summary of the method: as §8

wheat = test: Test Example 4: foliar treatment, effect on crop; e: wheat; conditions: treatment dosage 315 g/ha
Description: as §1, §2, §3, §4, §5

Indian mallow [8] = test: Test Example 4: weedkilling efficacy by foliar treatment; K: Indian mallow; conditions: treatment dosage 315 g/ha
Description: as §1, §2, §3, §4, §5

birds-eye speedwell [9] = test: Test Example 3: weedkilling efficacy through soil treatment; p: birds-eye speedwell; conditions: treatment dosage 315 g/ha
Summary of the method: as §6

Italian ryegrass [10] = test: Test Example 3: weedkilling efficacy through soil treatment; I: Italian ryegrass; conditions: treatment dosage 315 g/ha
Summary of the method: as §6

corn [11] = test: Test Example 4: foliar treatment, effect on crop; c: corn; conditions: treatment dosage 315 g/ha
Description: as §1, §2, §3, §4, §5

chickweed [12] = test: Test Example 4: weedkilling efficacy by foliar treatment; N: chickweed; conditions: treatment dosage 315 g/ha
Description: as §1, §2, §3, §4, §5

transplanted rice = test: Test Example 1: preemergent weed treatment in the submerged state, effect on crop; a: transplanted rice; conditions: treatment dosage 252 g/ha
Summary of the method: as §7

corn [13] = test: Test Example 3: soil treatment, effect on crop; c: corn; conditions: treatment dosage 315 g/ha
Summary of the method: as §6

beet [14] = test: Test Example 4: foliar treatment, effect on crop; f: beet; conditions: treatment dosage 315 g/ha
Description: as §1, §2, §3, §4, §5

catchweed = test: Test Example 4: weedkilling efficacy by foliar treatment; O: catchweed; conditions: treatment dosage 315 g/ha
Description: as §1, §2, §3, §4, §5

directly sown rice [15] = test: Test Example 4: foliar treatment, effect on crop; b: directly sown rice; conditions: treatment dosage 315 g/ha
Description: as §1, §2, §3, §4, §5

fig-leafed goosefoot [16] = test: Test Example 4: weedkilling efficacy by foliar treatment; M: fig-leafed goosefoot; conditions: treatment dosage 315 g/ha
Description: as §1, §2, §3, §4, §5

black-grass [17] = test: Test Example 3: weedkilling efficacy through soil treatment; H: black-grass; conditions: treatment dosage 315 g/ha
Summary of the method: as §6

black-grass [18] = test: Test Example 4: weedkilling efficacy by foliar treatment; H: black-grass; conditions: treatment dosage 315 g/ha
Description: as §1, §2, §3, §4, §5

redroot pigweed [19] = test: Test Example 3: weedkilling efficacy through soil treatment; L: redroot pigweed; conditions: treatment dosage 315 g/ha
Summary of the method: as §6

chickweed [20] = test: Test Example 3: weedkilling efficacy through soil treatment; N: chickweed; conditions: treatment dosage 315 g/ha
Summary of the method: as §6

Italian ryegrass [21] = test: Test Example 4: weedkilling efficacy by foliar treatment; I: Italian ryegrass; conditions: treatment dosage 315 g/ha
Description: as §1, §2, §3, §4, §5

oval-leafed pondweed [22] = test: Test Example 2: weedkilling efficacy, growth period weed treatment in the submerged state; C: oval-leafed pondweed; conditions: treatment dosage 252 g/ha
Summary of the method: as §8

directly sown rice [23] = test: Test Example 3: soil treatment, effect on crop; b: directly sown rice; conditions: treatment dosage 315 g/ha
Summary of the method: as §6

crabgrass [24] = test: Test Example 4: weedkilling efficacy by foliar treatment; D: crabgrass; conditions: treatment dosage 315 g/ha
Description: as §1, §2, §3, §4, §5

bulrush [25] = test: Test Example 1: weedkilling efficacy, preemergent weed treatment in the submerged state; B: bulrush; conditions: treatment dosage 252 g/ha
Summary of the method: as §7

beet [26] = test: Test Example 3: soil treatment, effect on crop; f: beet; conditions: treatment dosage 315 g/ha
Summary of the method: as §6

fig-leafed goosefoot [27] = test: Test Example 3: weedkilling efficacy through soil treatment; M: fig-leafed goosefoot; conditions: treatment dosage 315 g/ha
Summary of the method: as §6

redroot pigweed [28] = test: Test Example 4: weedkilling efficacy by foliar treatment; L: redroot pigweed; conditions: treatment dosage 315 g/ha
Description: as §1, §2, §3, §4, §5

Indian mallow [29] = test: Test Example 3: weedkilling efficacy through soil treatment; K: Indian mallow; conditions: treatment dosage 315 g/ha
Summary of the method: as §6

soybean [30] = test: Test Example 4: foliar treatment, effect on crop; d: soybean; conditions: treatment dosage 315 g/ha
Description: as §1, §2, §3, §4, §5

crabgrass [31] = test: Test Example 3: weedkilling efficacy through soil treatment; D: crabgrass; conditions: treatment dosage 315 g/ha
Summary of the method: as §6

green foxtail [32] = test: Test Example 3: weedkilling efficacy through soil treatment; E: green foxtail; conditions: treatment dosage 315 g/ha
Summary of the method: as §6

## CC1=C(c2cccs2)C(=O)N(C(C)(C)C(=O)Nc2cccc(Cl)n2)CO1 [B-2-01]
birds-eye speedwell [1]
  P (birds-eye speedwell) weedkilling efficacy grade: 0 (weed kill ratio 5% or less (practically no effect))
Soybean [2]
  d (soybean) effect on crop grade: 0 (weed kill ratio 5% or less (practically no effect))
oval-leafed pondweed [3]
  C (oval-leafed pondweed) weedkilling efficacy grade: 5 (weed kill ratio 90% or more, (practically complete withering))
Bulrush [4]
  B (bulrush) weedkilling efficacy grade: 5 (weed kill ratio 90% or more, (practically complete withering))
Green foxtail [5]
  E (green foxtail) weedkilling efficacy grade: 5 (weed kill ratio 90% or more, (practically complete withering))
Barnyard grass [6]
  A (barnyard grass) weedkilling efficacy grade: 5 (weed kill ratio 90% or more, (practically complete withering))
Barnyard grass [7]
  A (barnyard grass) weedkilling efficacy grade: 5 (weed kill ratio 90% or more, (practically complete withering))
wheat
  e (wheat) effect on crop grade: 1 (weed kill ratio 5% or more, less than 20%)
Indian mallow [8]
  K (Indian mallow) weedkilling efficacy grade: 3 (weed kill ratio 40% or more, less than 70%)
birds-eye speedwell [9]
  P (birds-eye speedwell) weedkilling efficacy grade: 5 (weed kill ratio 90% or more, (practically complete withering))
Italian ryegrass [10]
  I (Italian ryegrass) weedkilling efficacy grade: 5 (weed kill ratio 90% or more, (practically complete withering))
Corn [11]
  c (corn) effect on crop grade: 0 (weed kill ratio 5% or less (practically no effect))
Chickweed [12]
  N (chickweed) weedkilling efficacy grade: 4 (weed kill ratio 70% or more, less than 90%)
Transplanted rice
  a (transplanted rice) effect on crop grade: 2 (weed kill ratio 20% or more, less than 40%)
Corn [13]
  c (corn) effect on crop grade: 0 (weed kill ratio 5% or less (practically no effect))
Beet [14]
  f (beet) effect on crop grade: 4 (weed kill ratio 70% or more, less than 90%)
catchweed
  O (catchweed) weedkilling efficacy grade: 4 (weed kill ratio 70% or more, less than 90%)
Directly sown rice [15]
  b (directly sown rice) effect on crop grade: 5 (weed kill ratio 90% or more, (practically complete withering))
fig-leafed goosefoot [16]
  M (fig-leafed goosefoot) weedkilling efficacy grade: 4 (weed kill ratio 70% or more, less than 90%)
black-grass [17]
  H (black-grass) weedkilling efficacy grade: 5 (weed kill ratio 90% or more, (practically complete withering))
black-grass [18]
  H (black-grass) weedkilling efficacy grade: 5 (weed kill ratio 90% or more, (practically complete withering))
Redroot pigweed [19]
  L (redroot pigweed) weedkilling efficacy grade: 4 (weed kill ratio 70% or more, less than 90%)
Chickweed [20]
  N (chickweed) weedkilling efficacy grade: 3 (weed kill ratio 40% or more, less than 70%)
Italian ryegrass [21]
  I (Italian ryegrass) weedkilling efficacy grade: 5 (weed kill ratio 90% or more, (practically complete withering))
oval-leafed pondweed [22]
  C (oval-leafed pondweed) weedkilling efficacy grade: 5 (weed kill ratio 90% or more, (practically complete withering))
Directly sown rice [23]
  b (directly sown rice) effect on crop grade: 5 (weed kill ratio 90% or more, (practically complete withering))
Crabgrass [24]
  D (crabgrass) weedkilling efficacy grade: 5 (weed kill ratio 90% or more, (practically complete withering))
Bulrush [25]
  B (bulrush) weedkilling efficacy grade: 5 (weed kill ratio 90% or more, (practically complete withering))
Beet [26]
  f (beet) effect on crop grade: 4 (weed kill ratio 70% or more, less than 90%)
fig-leafed goosefoot [27]
  M (fig-leafed goosefoot) weedkilling efficacy grade: 4 (weed kill ratio 70% or more, less than 90%)
Redroot pigweed [28]
  L (redroot pigweed) weedkilling efficacy grade: 5 (weed kill ratio 90% or more, (practically complete withering))
Indian mallow [29]
  K (Indian mallow) weedkilling efficacy grade: 3 (weed kill ratio 40% or more, less than 70%)
Soybean [30]
  d (soybean) effect on crop grade: 5 (weed kill ratio 90% or more, (practically complete withering))
Crabgrass [31]
  D (crabgrass) weedkilling efficacy grade: 5 (weed kill ratio 90% or more, (practically complete withering))
Green foxtail [32]
  E (green foxtail) weedkilling efficacy grade: 5 (weed kill ratio 90% or more, (practically complete withering))

From patent US9738634B2, “Heterocyclic amide compound and herbicide” (SYNGENTA PARTICIPATIONS AG, priority 2013, dated 2017)
